Results published in patent US12344613B2, “EGFR inhibitor for the treatment of cancer” (Hoffmann-La Roche Inc., priority 2019, dated 2025).

Molecular target: T1, EGFR TMLRCS (BaF3-TMLRCS cell line) (Homo sapiens, UniProt P00533, C797S/L858R/T790M)
T1 construct: host or cells: Ba/F3 (BaF3-TMLRCS), maintained under puromycin selection
Assay: HTRF Phospho EGFR TMLRCS Assay (Cellular)
Type: cell-based
Settings: BaF3-TMLRCS cells, 4 hours incubation
Experimental: HTRF Phospho EGFR TMLRCS Assay (Cellular)
BaF3-TMLRCS cell line were obtained from Crownbio (San Diego, CA, USA). Cells were maintained at 37° C., 5% CO2 in RPMI ATCC (Gibco 31870)+2 mM Glutamine+0.5 μg/ml Puromycin supplemented with 10% fetal bovine serum (FBS) (Gibco).
Cells are transferred as above to Greiner Bio-One, Nr. 784-08 micro-titerplate at 20000 cells/well in 12.5 μl of growth medium/well after the plates had been pre-filled with 12.5 nl of DMSO solutions of the to be tested compounds (in dose response) or DMSO only. After spinning the plates at 300×g for 30 seconds the cells were incubated for 4 hours at 37 C, 5% CO2, 95% humidity. The cells were lysed by adding to the compound mix 4 μl/well of the supplemented lysis buffer (Cis-bio, Phospho-EGFR HTRF kit, 64EG1PEH), followed by incubation for 30 min at room temperature with shaking (400 rpm). The plates were then frozen and stored overnight at −80 C. […] The lidded plates were then incubated for 4 h at room temperature before reading the fluorescence emission at 616 and 665 nm using an Envision reader (Perkin Elmer). Data was analyzed in similar fashion as above using the normalized ratio of the 665 to 616 signals multiplied by 10000.

T1 sequence (P00533 25-1210 T790M/C797S/L858R): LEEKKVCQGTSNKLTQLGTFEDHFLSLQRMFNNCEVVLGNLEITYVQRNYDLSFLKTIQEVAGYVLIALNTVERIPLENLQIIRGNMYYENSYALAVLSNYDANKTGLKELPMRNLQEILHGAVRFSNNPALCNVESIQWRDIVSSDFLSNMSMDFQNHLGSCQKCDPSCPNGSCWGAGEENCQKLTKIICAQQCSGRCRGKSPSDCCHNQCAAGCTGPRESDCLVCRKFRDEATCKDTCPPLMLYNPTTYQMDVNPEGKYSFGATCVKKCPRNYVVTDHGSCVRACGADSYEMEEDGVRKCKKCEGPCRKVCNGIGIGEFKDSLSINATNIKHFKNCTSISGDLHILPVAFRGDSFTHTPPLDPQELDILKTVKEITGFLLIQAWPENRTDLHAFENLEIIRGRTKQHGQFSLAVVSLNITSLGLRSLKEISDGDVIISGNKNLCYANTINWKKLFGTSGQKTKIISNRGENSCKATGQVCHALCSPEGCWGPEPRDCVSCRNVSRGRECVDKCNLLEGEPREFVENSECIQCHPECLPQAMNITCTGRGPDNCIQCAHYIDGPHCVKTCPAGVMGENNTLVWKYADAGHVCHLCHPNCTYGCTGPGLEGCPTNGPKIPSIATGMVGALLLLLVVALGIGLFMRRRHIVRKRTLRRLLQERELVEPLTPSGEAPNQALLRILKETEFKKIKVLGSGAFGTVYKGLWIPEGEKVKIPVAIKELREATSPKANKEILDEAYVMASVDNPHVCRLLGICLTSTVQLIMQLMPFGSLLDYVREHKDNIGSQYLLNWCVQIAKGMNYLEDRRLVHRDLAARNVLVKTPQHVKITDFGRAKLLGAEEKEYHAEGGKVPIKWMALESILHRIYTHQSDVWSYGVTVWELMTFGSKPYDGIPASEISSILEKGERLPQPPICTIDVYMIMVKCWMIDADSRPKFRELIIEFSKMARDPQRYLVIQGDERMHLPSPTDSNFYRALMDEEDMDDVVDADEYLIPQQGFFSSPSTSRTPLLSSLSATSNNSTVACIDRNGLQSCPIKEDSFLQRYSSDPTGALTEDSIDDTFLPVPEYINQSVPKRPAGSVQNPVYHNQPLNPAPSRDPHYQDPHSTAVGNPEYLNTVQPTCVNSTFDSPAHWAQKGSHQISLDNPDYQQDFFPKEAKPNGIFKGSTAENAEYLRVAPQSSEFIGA

- IC50: 5 nM
SMILES: O=C(Nc1nccs1)C(c1ncn2c1C[C@@H](F)C2)n1cc2c(Cl)cc(-c3ccc(N4CCOCC4)cc3)c(Cl)c2n1 (stereo partly drawn) [Example 1, 2-[4,7-Dichloro-6-(4-morpholinophenyl)indazol-2-yl]-2-[(6R)-6-fluoro-6,7-dihydro-5H-pyrrolo[1,2-c]imidazol-1-yl]-N-thiazol-2-yl-acetamide]
